In patent US7678781B2, “11-phosphorous steroid derivatives useful as progesterone receptor modulators” (Janssen Pharmaceutica N.V., priority 2006, dated 2010):

What was measured:
[1] = system: T47D human breast cancer cells; test: Alkaline phosphatase assay in human breast cancer cell line T47D; assay type: cell-based; settings: 24 h, read-out: T47D IC50 (nM)
Protocol: Alkaline Phosphatase Assay in Human Breast Cancer Cell Line T47D
T47D human breast cancer cells were grown in RPMI medium without phenol red (Invitrogen) containing 10% (v/v) heat-inactivated fetal bovine serum (FBS; Hyclone), 1% (v/v) penicillin-streptomycin (Invitrogen), 1% (w/v) glutamine (Invitrogen), and […] insulin (Sigma). Incubation conditions were 37° C. in a humidified 5% (v/v) carbon dioxide environment.
The cells were plated in 96-well tissue culture plates at 10,000 cells per well in assay medium [RPMI medium without phenol red (Invitrogen) containing 5% (v/v) charcoal-treated FBS (Hyclone) and 1% (v/v) penicillin-streptomycin (Invitrogen)]. Two days later, the medium was decanted and test compound or control were added at a final concentration of 0.1% (v/v) dimethyl sulfoxide in fresh assay medium. Twenty-four hours later, an alkaline phosphatase assay was performed using a SEAP kit (BD Biosciences Clontech, Palo Alto, Calif.). Briefly, the medium was decanted and the cells were fixed for 30 minutes at room temperature with 5% (v/v) formalin (Sigma). The cells were washed once with room temperature Hank's buffered saline solution (Invitrogen). Equal volumes (0.05 mL) of 1× Dilution Buffer, Assay Buffer and 1:20 substrate/enhancer mixture were then added. After 1 hour incubation at room temperature in the dark, the lysate was transferred to a white 96-well plate (Dynex) and luminescence was read using a LuminoSkan Ascent (Thermo Electron, Woburn, Mass.).

[2] = system: A549 Human lung carcinoma cells; test: Transient transfection and Steady Glo luciferase assay in A549 cells with dexamethasone challenge; assay type: cell-based; settings: transfected A549 cells, challenged with dexamethasone (glucocorticoid agonist), 24 h
Protocol: Transient Transfection and Steady Glo Luciferase Assay
A549 Human lung carcinoma cells were grown in F-12K Nutrient Mixture containing 10% (v/v) fetal bovine serum (FBS; Invitrogen), 2 mM glutamine and 0.15% sodium dicarbonate(Invitrogen).
A549 cells were split 1 to 3 in 175 cm tissue culture flask. The cells were incubated at 37° C. in CO2 incubator until the cells were 95% confluent (typically 24-30 hours).
The following solutions were prepared in sterile tubes: (a) Solution A: 1.5 μg/ml of DNA in 8.5 ml OPTI-MEM I Reduced Serum Medium. (GIBCO cat# 31985) and (b) Solution B: 6 μl/ml of DMRIE-C Reagent into […] OPTI-MEM I. The two solutions were combined and mixed gently, then incubated at room temperature for 40 minutes.
The A549 cells prepared above were washed with […] of OPTI-MEM I. The medium was removed and 17 ml of the lipid-DNA complex solution was overlayed onto cells. The cells ere then incubated for 16 h at 37° C. in CO2 incubator. The DNA-containing medium was removed and 30 ml of growth medium was added. (5% Charcoal treated FBS) After 5-6 h, the cells were seeded in a 96 well plate and the cells incubated overnight at 37° C. in CO2 incubator.
To each well was then added 5 μl of test compounds and the cells incubated at 37° C. for 10 min. […] A 150 μL sample from each well was then transferred into a DYNEX Microlitel plate and read on Top-counter.

SMILES	IC50 [1]	IC50 [2]
C=C1CCO[C@]12CC[C@H]1[C@@H]3CCC4=CC(=O)CCC4=C3[C@@H](c3ccc(P(C)(C)=O)cc3)C[C@@]12C [Compound 4]	3 nM	–
C[C@]12C[C@H](c3ccc(P(=O)(Oc4ccccc4)Oc4ccccc4)cc3)C3=C4CCC(=O)C=C4CC[C@H]3[C@@H]1CCC2=O [Compound 33]	> 1000 nM	217 nM
C=C1CCO[C@]12CC[C@H]1[C@@H]3CCC4=CC(=O)CCC4=C3[C@@H](c3ccc(P(=O)(Oc4ccccc4)Oc4ccccc4)cc3)C[C@@]12C [Compound 37]	3.3 nM	34.3 nM
